From patent US20190054064A1, “VITAMIN C AND VITAMIN K COMPOUND FOR TREATING PANCREATIC CANCER” (IC-MedTech Corp., priority 2014, published 2019) come the findings set out here.

Usually IC50 stands for the concentration at which inhibition is half-maximal. The low end stands for greater potency, the high end for weaker potency. As a reminder, the viability is a read-out of living cells in per cent, often relative to untreated cells.

One experiment relates to AsPC-1. Briefly: Soft agar growth assay (Alamar Blue), Example 2, AsPC-1. As to conditions: AsPC-1, soft agar, 10 days. The class given is cell-based, human. The protocol: (§1) A stock solutions (1,000×) of menadione (VK3) were prepared in DMSO and a stock solution of calcium L-ascorbate dihydrate (VC) (1,000×) was prepared in water. All stock solutions were prediluted 1:62.5 first in medium and finally diluted to the final assay concentrations. Actinomycin D was used as a reference.
(§2) Suspension cell culture plates (96-well) were prepared. The soft agar bottom layer (100 μL, 0.6% final concentration in complete medium) was poured and left to solidify. The soft agar top layer (50 μL, 0.4% final concentration) containing the corresponding cells and cell number were then added on top, solidified, and incubated overnight at 37° C., 10% CO2. Next day, the test compounds, DMSO, or actinomycin D were added at predetermined final concentrations. […] Finally, the assay was developed using Alamar Blue and upon 0.5-5 hrs of incubation at 37° C. and fluorescence intensity was determined (excitation: 560 nm; emission: 590 nm). […]
(§3) Raw data were converted into percent soft agar growth relative to high controls (solvent 0.2% DMSO) and low controls (10^−5M staurosporine), which were set to 100% and 0%, respectively. IC50 values were calculated using standard parameters based on the signal of the solvent control as top constraint (100% soft agar growth) and the signal of the Staurosporine control as bottom constraint (0% soft agar growth).

The next experiment has as its system Mia PaCa-2. Briefly: Soft agar growth assay (Alamar Blue), Example 2, Mia PaCa-2. As to conditions: Mia PaCa-2, soft agar, 8 days. In kind it is cell-based, human. The procedure: as §1, §2, §3
In general terms: Alamar Blue is a resazurin reagent that responds to reducing activity.

Experiment [1] has as its system human pancreatic cancerous cell line MIA PaCa-2. Kind of experiment: Soft agar growth assay (Alamar Blue), Example 1. In kind it is cell-based. The following applies: 240 h, MIA PaCa-2, soft agar, 10 days. The procedure:
The effects of vitamins C and K3, alone or in combination, on pancreatic cancer were studied using human pancreatic cancerous cell line MIA PaCa-2. The pancreatic cancerous cells were cultured in DMEM containing 10% FCS and penicillin/streptomycin.
Vitamins C and K3 stock solutions in DMSO were prepared at a concentration of 2 M and 20 mM, respectively. Actinomycin D was used as a reference.
Prior to addition to the pancreatic cancerous cells, stock solutions of the test compounds (vitamins C and K3, and actinomycin D) were diluted in culture medium and 10 μL were added on top of 150 μL of solidified soft agar to diffuse into the soft agar in a 96-well plate. For each well in the 96-well plate, 100 μL of the soft agar bottom layer (0.6% final concentration in complete medium) was poured and left to solidify, and 50 μL of the soft agar top layer (0.4% final concentration) containing the pancreatic cancerous cells (about 5,000 cells/well) were then added on top, solidified. The 96-well plate was incubated overnight at 37° C., 10% CO2. The next day, the test compounds were added at the prescribed final concentrations into the inner wells of the plate. Subsequently, the assays were incubated in cell culture incubators for 10 days. […] Fluorescence intensity was then determined (excitation: 560 nm; emission: 590 nm). […]

Each structure is given as a SMILES string. Starred links: 1 amine or outer side, 2 acyl side, 3 side chain; linkers in the order of their positions; H or OH if unused. Positions of bridges follow the written chain, without caps; N, C: chain ends. Non-standard residues stand in square brackets, D forms with d. Residues, ends and D or L forms follow the SMILES beside them. Chains are numbered I, II in the order given. Actinocin(9to1) = Cc1c2oc3c(C)ccc(C(=O)[*:1])c3nc-2c(C(=O)[*:2])c(N)c1=O; NMeV = CN[C@H](C(=O)O)C(C)C; Sar = CNCC(=O)O

For `Cc1c2oc3c(C)ccc(C(=O)N[C@@H]4C(=O)N[C@H](C(C)C)C(=O)N5CCC[C@H]5C(=O)N(C)CC(=O)N(C)[C@@H](C(C)C)C(=O)O[C@@H]4C)c3nc-2c(C(=O)N[C@@H]2C(=O)N[C@H](C(C)C)C(=O)N3CCC[C@H]3C(=O)N(C)CC(=O)N(C)[C@@H](C(C)C)C(=O)O[C@@H]2C)c(N)c1=O` [Actinomycin D] (I: T[dV]P[Sar][NMeV] / II: T[dV]P[Sar][NMeV]; ester I:1-I:C, II:1-II:C; linker I:N-II:N via Actinocin(9to1)), the IC50 in the experiment with AsPC-1 was 2.7 nM; in the experiment on Mia PaCa-2 it was 0.4 nM.
On to `CC1=CC(=O)c2ccccc2C1=O` [Vitamin K3, 2-methyl-1,4-naphthoquinone], for which the viability at 0.6 µM in experiment [1] (0.6 μM Vitamin K3 alone) turned out to be 103.2 ± 0.9%. In experiment [1] (6 μM Vitamin K3 alone), the viability at 6 µM is 90.2 ± 12.5%.
